Data from patent US10633363B2, “EPAC1 activators as HIV latency reversal agents (LRA)” (The Board of Regents of The University of Texas System, priority 2017, dated 2020).
Entries after “also recorded” stand apart in the source; their conditions may differ.

Experiments:
[1] = system: latent HIV in J-lat cells; assay: Activation of GFP expression (latent HIV reactivation) in J-lat cells; format: cell-based; settings: for GFP expression in J-lat cells: flow cytometry, 10 M (so in the source); for Ability to stimulate GFP expression in J-lat cells compared with ZL0568 (SAR): 10 μM
Procedure: FIG. 2A. Assessment of compound ZL0568, an exemplary embodiment of the invention, for the ability to stimulate GFP expression in J-lat cells. GFP fluorescence intensity was measured by microplate reader.
FIG. 2C. Dose-dependent activation of GFP expression in J-lat cells by ZL0568 measured by flow cytometry.
Dose-dependent activation of GFP expression by ZL0568 in J-lat cells was confirmed by flow cytometric analysis with an EC50 value of 8 μM (in DMSO) (FIG. 2C-D). […] See e.g., FIG. 8A-E.
Specificity and structure-activity relationship (SAR) for ZL0568 was determined by synthesizing and testing four analogues (ZL0696, ZL0697, ZL0699 and ZL06100; 10 μM).

[2] = system: EPAC (EPAC1) in J-lat cells; assay: 007-AM-stimulated GFP expression in J-lat cells after CRISPR/Cas9 knock out of EPAC; format: cell-based
Description: FIG. 3F. Functional involvement of EPAC in 007-AM stimulated HIV reactivation in J-lat cells.

latent HIV in NNTC PBMC [3] = assay: Activation of latent HIV gene expression (3'LTR PCR) in PBMC of ART-suppressed, aviremic HIV-infected subjects (NNTC); format: cell-based; settings: for HIV gene expression, PCR quantification of HIV 3'LTR vs NC: fresh and frozen PBMC of one NNTC subject, 48 hours, ZL0568 10 M (so in the source)
Procedure: FIG. 6A. Relative HIV gene expression in one representative PBMC following different treatments. Fresh and cryopreserved PBMC of the same donor were compared.
FIG. 6C. Relative HIV gene expression in multiple BMCs (n=8) after treatments were summarized.
The ability of compound ZL0568 to activate latent HIV in PBMC of ART-suppressed, aviremic HIV-infected subjects was tested. PBMC samples were obtained from the well-established HIV infection cohort from the National NeuroAIDS Tissue Consortium (NNTC) with (66, 67). First, feasibility of using NNTC's cryopreserved PBMC in the experiments was explored by comparing the results from fresh and frozen PBMC of the same subject. […] Thus, fresh and cryopreserved PBMC from a representative NNTC subject (ID: 8400337177) were stimulated with compound ZL0568 (10 M) as compared to stimulation with mock (NC) or positive controls (JQ1, Prostratin and PMA; concentrations of positive controls were used as previously reported (21, 25)).
(§1) HIV release in the supernatants of PBMC at 72 hours after treatments using the 1G5 luciferase reporter assay (68, 69) was measured and very similar results were found (FIG. 6B). We noted that although the levels of HIV activation in frozen PBMC were generally lower than those in fresh PBMC, the differences among different treatments were consistently detected (FIG. 6A-B), supporting the feasibility of using NNTC's cryopreserved PBMCs in our system.
(§2) Compound ZL0568 was further tested in multiple NNTC's donor PBMCs (n=8) for HIV gene activation (FIG. 6C) as well as viral production (FIG. 6D).

[4] = system: latent HIV in human monocytic U1 cells; assay: Activation of latent HIV in U1 cells, intracellular HIV p24 staining by flow cytometry; format: cell-based; settings: various concentrations, 48 hours
Procedure: FIG. 4. Activation of latent HIV by compound ZL0568 in U1 cells. U1 cells were stimulated with various concentrations of compound ZL0568 as indicated or mock-stimulated (NC) for 48 hours. Reactivation of latent HIV were examined based on intracellular HIV p24 staining (p24%) by flow cytometry.
Whether or not compound ZL0568, an exemplary embodiment of the invention, can activate latent HIV in human monocytic U1 cells was evaluated. In particular, U1 cells were stimulated with various concentrations of ZL0568 or mock DMSO (NC). Reactivation of latent HIV was measured based on intracellular HIV p24 staining by flow cytometry.

HIV in RV21 PBMC = assay: Activation of HIV gene expression in PBMC of ART-naive, viremic HIV-infected individuals (RV21); format: cell-based
Procedure: FIG. 5A Activation of HIV gene expression (3′ LTR) in a representative RV21 PBMC on Day 1, 2 and 5 after stimulation. The data are shown as fold change to NC.
A significant limitation for some existing LRAs (e.g. HDACi & BETi) is related to their limited efficacy to activate latent HIV in primary cells (16, 17, 19-21). Whether or not our compound ZL0568 can stimulate HIV gene expression in human PBMC from ART-naïve, viremic HIV-infected individuals was assessed using cells from the RV21, an ART-naïve, HIV infection cohort at the Military HIV Research Program (MHRP). See e.g., Liu F, et al. Sequential Dysfunction and Progressive Depletion of Candida albicans-Specific CD4 T Cell Response in HIV-1 Infection. PLoS Pathog 12(6):e1005663 (2016). A widely-used method to detect HIV transcription in cells from infected individuals involves measurement of RNAs containing HIV gag sequences. […] See e.g., Bullen C K, Laird G M, Durand C M, Siliciano J D, & Siliciano R F, New ex vivo approaches distinguish effective and ineffective single agents for reversing HIV-1 latency in vivo. Nat Med 20(4):425-429 (2014).
Therefore, in addition to Gag, a new PCR assay, established by the Siliciano group, specific for intracellular HIV mRNA using a primer/probe set that detects the 3′-sequence common to all correctly terminated HIV RNAs was employed. […]

latent HIV in NNTC PBMC [5] = assay: HIV release in supernatants of treated PBMC, 1G5 luciferase reporter assay; format: cell-based; settings: multiple NNTC donor PBMCs (n=8), p<0.01
Procedure: FIG. 6B. Relative viral release in one representative PBMC following different treatments. Fresh and cryopreserved PBMC of the same donor were compared.
FIG. 6D. HIV release in supernatants of treated PBMC was measured by 1G5 reporter luciferase assay and compared between ZL0568 and NC.
as §1, §2

[6] = Cellular toxicity on J-lat cells (% viable cells); format: cell-based; settings: stated for J-lat and human PBMC together; cell type not specified; read-out: cytotoxicity CC50
Procedure: (§3) FIG. 8A. Cellular toxicity of ZL0568 on J-lat cells. Toxicity was measured as % viable cells at Day 1, 2 and 3 after stimulation at various concentrations.
(§4) Cellular toxicity profile of ZL0568 and its effects on human T cells was evaluated. […] This possibility was precluded since apoptosis was recently shown to be associated with HIV reactivation (68).

J-lat cells = assay: Cellular toxicity on J-lat cells (% viable cells); format: cell-based; settings: J-lat cells; 40 μM
Procedure: as §3, §4

human PBMC = assay: Cellular toxicity on human PBMC (% viable cells); format: cell-based; settings: 40 μM
Procedure: FIG. 8B. Cellular toxicity of ZL0568 on human PBMC. Toxicity was measured as % viable cells at Day 1, 2 and 3 after stimulation at various concentrations.
as §4

T cells [7] = assay: Caspase-3 and Caspase-1 expression in T cells; format: cell-based, human; settings: 24 hours, vs NC
Procedure: FIG. 8C. Caspase-3 and Caspase-1 expression in T cells with ZL0568 stimulation as compared to NC (24 hours).
as §4

T cells [8] = assay: T-cell activation marker expression (CD25, CD38, CD69, HLA-DR) by flow cytometry; format: cell-based, human; settings: 10 μM
Procedure: FIG. 8D. T-cell activation by ZL0568. Activation marker expression (CD25, CD38, CD69, HLA-DR) on T-cells was measured flow cytometry and compared between ZL0568 (10 uM) and NC.
as §4

T cells [9] = assay: Expression of cytokines in T cells by intracellular cytokine staining; format: cell-based, human; settings: 10 uM, 24 hours
Procedure: FIG. 8E. Expression of cytokines (% IFN-r, IL-2, MIP-1b or IL-17) in T cells between ZL0568 treatment (10 uM) and NC (24 hours), measured by intracellular cytokine staining.
as §4

Compound: CO[C@@H]1[C@@H]2OP(=O)(OCOC(C)=O)OC[C@H]2O[C@H]1n1c(Sc2ccc(Cl)cc2)nc2c(N)ncnc21 (stereo partly shown) [007-AM, reference compound]
- GFP expression / HIV reactivation in J-lat cells (in words) [1]: significant HIV reactivation
- GFP expression in J-lat cells [1]: 12.8%
- 007-AM-stimulated GFP expression after ablation of EPAC [2]: marked decrease

Compound: CC(C)(C)c1cc(C(=O)/C(C#N)=N/Nc2cccc(Cl)c2)no1 [ESI-09, reference compound]
- GFP expression / HIV reactivation in J-lat cells (in words) [1]: no HIV activation effect; also recorded: no GFP-activating effect

Compound: Cc1sc2c(c1C)C(c1ccc(Cl)cc1)=N[C@@H](CC(=O)OC(C)(C)C)c1nnc(C)n1-2 [JQ1, reference compound]
- GFP expression in J-lat cells [1]: 8.97%
- HIV gene expression, PCR quantification of HIV 3'LTR vs NC (latent HIV in NNTC PBMC [3]): failed to do so

Compound: CCCCCCCCCCCCCC(=O)O[C@@H]1[C@@H](C)[C@@]2(O)[C@@H](C=C(CO)C[C@]3(O)C(=O)C(C)=C[C@@H]23)[C@@H]2C(C)(C)[C@]12OC(C)=O [PMA]
- HIV gene expression, PCR quantification of HIV 3'LTR vs NC (latent HIV in NNTC PBMC [3]): markedly activated HIV gene expression

Compound: CC(=O)O[C@@]12C[C@@H](C)[C@@]3(O)[C@@H](C=C(CO)C[C@]4(O)C(=O)C(C)=C[C@@H]34)[C@@H]1C2(C)C [Prostratin]
- HIV gene expression, PCR quantification of HIV 3'LTR vs NC (latent HIV in NNTC PBMC [3]): markedly activated HIV gene expression

Compound: Cn1cc(C(=O)/C(C#N)=N/Nc2ccc(Cl)c(C(F)(F)F)c2)c2ccccc21 [ZL0568, (E)-N-(4-chloro-3-(trifluoromethyl)phenyl)-2-(1-methyl-1H-indol-3-yl)-2-oxoacetohydrazonoyl Cyanide]
- EC50 ([1]; Human immunodeficiency virus 1, flow cytometric analysis, in DMSO, read-out: EC50, dose-dependent activation of GFP expression in J-lat cells): 8 µM
- GFP expression / HIV reactivation in J-lat cells (in words) [1]: significant GFP expression
- GFP expression in J-lat cells [1]: 21.7%
- HIV reactivation in U1 cells based on p24 expression [4]: could also stimulate HIV reactivation in U1 cells in a dose-dependent manner
- HIV gene expression (3'LTR and Gag together) vs NC (HIV in RV21 PBMC; ART-naive RV21 PBMCs, Day 2, p<0.005): could significantly activate HIV gene expression
- HIV 3'-LTR gene expression, time course (HIV in RV21 PBMC; representative RV21 PBMC, 10 M (so in the source), Day 1, 2 and 5): induced HIV 3′-TLR expression on Day 2 after stimulation, which became less significant on Day 5
- HIV gene expression, PCR quantification of HIV 3'LTR vs NC (latent HIV in NNTC PBMC [3]): significant HIV gene expression
- HIV gene activation vs NC (latent HIV in NNTC PBMC [3]; multiple NNTC donor PBMCs (n=8), p<0.01): enhanced HIV activation
- Viral production vs NC (latent HIV in NNTC PBMC [5]): enhanced HIV activation
- CC50 [6]: 75 µM
- Cellular toxicity, % viable cells (J-lat cells): limited cellular toxicity
- Cellular toxicity, % viable cells (human PBMC): limited cellular toxicity
- Induction of cell death signals (caspase-3/caspase-1) (T cells [7]): no preferential induction of cell death signals
- CD69 and HLA-DR expression (T cells [8]): no significant increase
- T-cell activation, expression of CD25 and CD38 (T cells [8]; p<0.001): modest level of T-cell activation
- Expression of inflammatory cytokines in T cells (IFN-γ, IL-2, MIP-1b, IL-17) (T cells [9]): did not induce expression of inflammatory cytokines

Compound: Cn1cc(C(=O)/C(C#N)=N/Nc2ccccc2Cl)c2ccccc21 [ZL0696, (E)-N-(2-Chlorophenyl)-2-(1-methyl-1H-indol-3-yl)-2-oxoacetohydrazonoyl Cyanide]
- Ability to stimulate GFP expression in J-lat cells compared with ZL0568 (SAR) [1]: substantially abrogated the ability to stimulate GFP expression

Compound: Cn1cc(C(=O)/C(C#N)=N/Nc2cccc(Cl)c2)c2ccccc21 [ZL0697, (E)-N-(3-Chlorophenyl)-2-(1-methyl-1H-indol-3-yl)-2-oxoacetohydrazonoyl Cyanide]
- Ability to stimulate GFP expression in J-lat cells compared with ZL0568 (SAR) [1]: substantially abrogated the ability to stimulate GFP expression

Compound: Cn1cc(C(=O)/C(C#N)=N/Nc2cc(Cl)cc(Cl)c2)c2ccccc21 [ZL0699, (E)-N-(3,5-Dichlorophenyl)-2-(1-methyl-1H-indol-3-yl)-2-oxoacetohydrazonoyl Cyanide]
- Ability to stimulate GFP expression in J-lat cells compared with ZL0568 (SAR) [1]: substantially abrogated the ability to stimulate GFP expression

Compound: Cn1cc(C(=O)/C(C#N)=N/Nc2ccc3c(c2)CCC(=O)N3)c2ccccc21 [ZL06100, (E)-2-(1-Methyl-1H-indol-3-yl)-2-oxo-N-(2-oxo-1,2,3,4-tetrahydroquinolin-6-yl)acetohydrazonoyl Cyanide]
- Ability to stimulate GFP expression in J-lat cells compared with ZL0568 (SAR) [1]: still maintained some potency
